Experimental data reported in patent US20200113902A1, “COMPOSITIONS AND METHODS FOR TREATING CANCERS WITH COVALENT INHIBITORS OF CYCLIN-DEPENDENT KINASE 7 (CDK7)” (Syros Pharmaceuticals, Inc., priority 2017, published 2020).

Legend:
BR5023 xenografts = test: TNBC patient-derived xenograft BR5023, tumor volume; format: in vivo, mouse; conditions: 40 mg/kg or 30 mg/kg i.v. BIW
Method: (§1) Patient-derived xenograft (PDX) models from TNBC patients (BR5010, BR5013, BR5015, and BR5023) were established in NOD-SCID mice at Crown Bioscience (San Diego, USA). Cryo vials containing tumor cells were thawed and prepared for injection into mice. Cells were washed in PBS, counted, and resuspended in cold PBS at a concentration of 50,000-100,000 viable cells/100 ul. Cell suspensions were mixed with an equal volume of Cultrex ECM and kept on ice during transport to the vivarium. Cells were prepared for injections by withdrawing ECM-Cell mixture into a chilled slip-tip syringe fitted with a 26G 7/8 (0.5 mm×22 mm) needle. The filled syringes were kept on ice to avoid the solidification of ECM. Each mouse was inoculated subcutaneously in the right flank with 200 uL of the cell suspension. Tumor sizes were measured in two dimensions using a caliper, and the volumes were expressed in mm^3 using the formula: V=0.5 a×b^2, where a and b are the longest and shortest diameters of the tumor, respectively. Compound 1 treatment was started when the average tumor size reached 150-200 mm^3.
(§2) Compound 1 was formulated in w/v 20% Captisol (pH 4-6) and administered by i.v. twice weekly (BIW) at a final dose of 40 mg/kg or 30 mg/kg in a 10 ml/kg volume. Tumor volumes were measured twice weekly over the course of the study. […]

HCC70 cells = test: Growth rate (GR) inhibition, Cell Titer Glo 2.0, HCC70; format: cell-based, human; conditions: concentrations greater than 100 nM, 72 hours
Method: To determine the effect of Compound 1 on the growth of TNBC cancer cells, four different human TNBC cell lines were used—HCC70, MDA-MB-468, MDA-MB-453 and CAL120. Cells from each cell line were plated separately at 50,000 cells/mL (100 uL per well) in a black-walled 96 well plate and allowed to adhere overnight. In parallel, cells were plated in a separate day 0 plate to measure the number of cells present upon compound addition. The next day, Compound 1 was added to the wells with an HP 300e compound dispenser in a 10-point serial dilution and cells incubated for 72 hours. On the same day Cell Titer Glo 2.0 reagent was added to the day 0 plate, and the luminescence measured with an Envision plate reader per manufacture protocol. After 72 hours Cell Titer Glo 2.0 reagent was added to the plates and the luminescence measured. GR curves were calculated as follows: […]
wherein x(c) is the Compound 1 treatment luminescence); x0 is the average Day 0 luminescence); and xctrl is the average DMSO treatment luminescence, and graphed using Graph Pad Prism. A GR value of 1 indicates no growth inhibition; GR values between 0 and 1 indicate partial growth inhibition; a GR value of 0 indicates cytostasis (no change from baseline); GR values less than 0 indicate cytotoxicity (cell number less than baseline); a GR value of −1 indicates complete cell loss.

leukemic cells = conditions: leukemic vs non-malignant cells; previously shown; cited from earlier work
[1] = system: ovarian carcinoma PDX models (OV5387, OV14702, OV14972, OV15398, OV15576, OV15696, OV15612, OV15631); test: Ovarian carcinoma patient-derived xenografts (eight models), tumor volume; format: in vivo, mouse; conditions: 40 mg/kg or 30 mg/kg i.v. BIW; four did not respond
Method: as §1, with “from ovarian carcinoma” for “from TNBC”, “patients (OV5387, OV14702, OV14972, OV15398, OV15576, OV15696, OV15612, OV15631)” for “patients (BR5010, BR5013, BR5015, and BR5023)”, “in mm3” for “in mm^3”, “V=0.5 a×b^2” for “V=0.5 a×b^2,”
as §2

[2] = system: Rad51, CHEK1 and CHEK2 RNA in THP1 cells; test: Microarray RNA levels of DNA damage repair genes, THP1; format: cell-based; conditions: THP1 AML cells; 100 nM, 6 hrs
Method: THP1 is an AML cell line. THP1 cells (1×10^6/well) were plated in 6-well plates and treated with vehicle (DMSO), 100 nM Compound 1, 25 nM NVP2 (a CDK9 inhibitor), 250 nM JQ1 (a BRD4 inhibitor) or 200 nM Flavopiridol (a pan-CDK inhibitor) for 6 hrs, after which cells were harvested and total RNA (1,000 ng) isolated. RNA levels of the DNA damage repair genes Rad51, CHEK1 and CHEK2 were analyzed by microarray. Experiments were done in triplicates. We performed RMA normalization of the data using the “affy” package from Bioconductor. The command used is shown below and includes background correction, normalization and summarization:
Next, we performed loess normalization using only spike-ins to enable comparison of expression values across multiple samples.

[3] = system: homologous recombination deficiency / carboplatin sensitivity genes in TOV21G cells; test: Nanostring PanCancer Pathways mRNA, TOV21G; format: cell-based; conditions: 50 nM, 16 hours
Method: Ovarian Cell lines OvCar3, TOV21G, A2780 and COV318 were plated at 500,000 cells/well in a 6-well plate the day before treatment. The next day the cells were treated with vehicle or 50 nM Compound 1 for 0, 6, or 16 hours after which cells were harvested and total RNA collected using RNeasy mini kit (Qiagen). Changes in mRNA between samples were analyzed with Nanostring™ PanCancer Pathways Panels specifically analyzing genes related to homologous recombination deficiency and carboplatin sensitivity (ie. BRCA1, BRCA2, Rad51, ATM, ATR, MSH2, MSH6). Nanostring signal intensities were first normalized to housekeeping genes across all cell lines, and then normalized to the 0 hour timepoint within a cell line.

CN(C)C/C=C/C(=O)Nc1ccc(C(=O)N[C@@]2(C)CCC[C@@H](Nc3ncc(Cl)c(-c4c[nH]c5ccccc45)n3)C2)nc1 [Compound 1, N-((1S,3R)-3-(5-chloro-4-(1H-indol-3-yl)pyrimidin-2-ylamino)-1-methylcyclohexyl)-5-((E)-4-(dimethylamino)but-2-enamido)picolinamide]
Tumor growth vs untreated historical samples (BR5023 xenografts): little inhibitory effect on tumor growth | Inhibition of growth (GR curve) (HCC70 cells): almost complete inhibition of growth | Induction of apoptosis in vitro (leukemic cells): selectively induce apoptosis in leukemic cells relative to non-malignant cells | Response to treatment across eight ovarian PDX models (tumor growth vs historical untreated) [1]: four of the xenografts responded to treatment | mRNA expression from genes involved in DNA repair (Rad51, CHEK1, CHEK2) [2]: Downregulation | mRNA of genes related to homologous recombination deficiency and carboplatin sensitivity, all genes except Rad51 (BRCA1, BRCA2, ATM, ATR, MSH2, MSH6) [3]: downregulated
